Target: Glutamate receptor ionotropic, NMDA 1 (Rattus norvegicus, UniProt P35439)
Assay: Compound was evaluated for its ability to displace [3H]TCP from PCP N-methyl-D-aspartate glutamate receptor in rat brain
Type: tissue-based

SMILES | Ki
c1ccc([C@]2(N3CCCCC3)CC[C@@H]3C[C@@H]32)cc1 | 29000 nM
c1ccc([C@@]2(N3CCCCC3)CC[C@H]3C[C@H]32)cc1 | 8220 nM
c1ccc([C@@]2(N3CCCCC3)C[C@H]3C[C@H]3C2)cc1 | 711 nM
c1ccc([C@]2(N3CCCCC3)CC[C@H]3C[C@H]32)cc1 (racemic) | 582 nM
c1ccc(C2(N3CCCCC3)CCCCC2)cc1 [PHENCYCLIDINE] | 64.5 nM
c1ccc([C@]2(N3CCCCC3)C[C@H]3C[C@H]3C2)cc1 | 644 nM

— ChEMBL document CHEMBL1126186 (J Med Chem, 1992)
